Our source for the Pressor reaction values is US4952560A, “Ointment base” (Takeda Chemical Industries, Ltd., priority 1984, dated 1990).

Where a name gives a salt, the structure may show the parent alone.

The test system of the test is Pressor reaction (norepinephirine). Kind of test: Pressor reaction inhibiting effect of prazosin hydrochloride-containing preparation (Test Example 2). Type of test: in vivo, male SD rats. Particulars: oral, 20 mg/kg once daily, 3 days; 24 h after last dose; norepinephirine 3 μg/kg i.v.; control 48.6 ± 1.2; * significant difference from control (risk factor 5%).

Method: (B) A suspension of prazosin hydrochloride in 1% gum arabic suspension was orally administered.
The dosage for both treatment groups was 20 mg/kg once daily and the treatment was carried out for 3 consecutive days. Twenty-four hours after the last dosing, 3 μg/kg of norepinephirine was intravenously administered under pentobarbital sodium anesthesia (dosage 40 mg/kg; intraperitoneal) and the resulting pressor reaction was compared with that in the untreated control group.

In turn, `COc1cc2nc(N3CCN(C(=O)c4ccco4)CC3)nc(N)c2cc1OC` [prazosin hydrochloride] showed a Pressor reaction of 34.9 ± 2.2 mmHg.
